Source: ChEMBL document CHEMBL3351934, “Monocyclic 4-amino-6-(phenylamino)-1,3,5-triazines as inhibitors of human DNA topoisomerase IIα” (Bioorg Med Chem Lett, 2014)
pEC50, pIC50: −log10 of the molar value. Activity calls are given as the source filed them. No cut-off for these calls is given here.

Experiments:
[1] = target: DNA topoisomerase 2-alpha (Homo sapiens, UniProt P11388); test: Inhibition of human DNA topoisomerase 2alpha using plasmid pNO1 substrate incubated at 37 degC for 30 mins by fluorimetry
DNA topoisomerase 2-alpha, sequence (P11388 whole entry): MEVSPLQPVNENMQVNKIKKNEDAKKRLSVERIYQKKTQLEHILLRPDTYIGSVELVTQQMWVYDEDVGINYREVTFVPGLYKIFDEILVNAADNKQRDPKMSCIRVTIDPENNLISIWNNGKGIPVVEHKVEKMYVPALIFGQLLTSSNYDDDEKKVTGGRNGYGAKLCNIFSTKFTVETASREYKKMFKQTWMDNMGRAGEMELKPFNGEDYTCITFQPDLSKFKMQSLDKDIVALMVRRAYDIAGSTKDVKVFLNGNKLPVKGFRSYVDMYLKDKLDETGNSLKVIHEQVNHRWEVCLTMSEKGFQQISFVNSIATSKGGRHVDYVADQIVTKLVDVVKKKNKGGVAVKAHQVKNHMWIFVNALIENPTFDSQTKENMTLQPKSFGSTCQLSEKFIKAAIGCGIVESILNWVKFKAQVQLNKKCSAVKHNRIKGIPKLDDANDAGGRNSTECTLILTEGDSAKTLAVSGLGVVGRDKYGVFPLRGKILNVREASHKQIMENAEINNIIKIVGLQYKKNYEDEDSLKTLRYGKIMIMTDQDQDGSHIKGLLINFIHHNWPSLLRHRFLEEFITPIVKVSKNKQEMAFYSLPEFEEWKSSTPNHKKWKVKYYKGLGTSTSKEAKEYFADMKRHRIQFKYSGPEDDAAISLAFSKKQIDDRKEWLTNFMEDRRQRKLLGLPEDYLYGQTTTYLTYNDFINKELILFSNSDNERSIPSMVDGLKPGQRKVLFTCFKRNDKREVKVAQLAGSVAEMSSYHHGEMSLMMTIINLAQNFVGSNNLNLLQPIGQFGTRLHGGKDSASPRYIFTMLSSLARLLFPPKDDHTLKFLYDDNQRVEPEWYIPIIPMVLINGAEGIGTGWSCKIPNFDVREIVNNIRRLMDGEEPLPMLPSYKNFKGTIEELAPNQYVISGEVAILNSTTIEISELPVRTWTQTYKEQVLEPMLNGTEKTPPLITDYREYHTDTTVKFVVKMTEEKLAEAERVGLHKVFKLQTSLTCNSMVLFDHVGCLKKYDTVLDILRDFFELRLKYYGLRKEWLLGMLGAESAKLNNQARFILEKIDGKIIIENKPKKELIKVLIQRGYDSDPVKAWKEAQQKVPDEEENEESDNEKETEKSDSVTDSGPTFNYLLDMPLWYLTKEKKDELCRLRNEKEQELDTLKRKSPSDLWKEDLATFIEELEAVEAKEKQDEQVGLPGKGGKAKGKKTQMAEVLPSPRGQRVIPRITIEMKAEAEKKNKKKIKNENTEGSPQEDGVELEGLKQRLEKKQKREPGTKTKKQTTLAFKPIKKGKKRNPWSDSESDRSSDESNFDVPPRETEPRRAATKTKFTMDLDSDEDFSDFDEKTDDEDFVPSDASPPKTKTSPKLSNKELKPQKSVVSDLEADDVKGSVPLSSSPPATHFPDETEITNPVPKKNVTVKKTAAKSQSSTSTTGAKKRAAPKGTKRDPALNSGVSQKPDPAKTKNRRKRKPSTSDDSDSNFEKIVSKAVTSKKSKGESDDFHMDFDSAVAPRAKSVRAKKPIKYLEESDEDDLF

HepG2 [2] = test: Cytotoxic activity against human HepG2 cells assessed as reduction in cell viability at 200 uM after 24 hrs by MTT assay; assay type: functional; conditions: HepG2, 24 h
[3] = Cytotoxic activity against HUVEC assessed as reduction in cell viability at 200 uM after 24 hrs by MTT assay; assay type: cell-based; conditions: human, HUVEC cells; read-out: INH
HepG2 [4] = test: Cytotoxic activity against human HepG2 cells assessed as reduction in cell viability after 24 hrs by MTT assay; conditions: HepG2, 24 h
HUVEC = test: Cytotoxic activity against HUVEC assessed as reduction in cell viability after 24 hrs by MTT assay; assay type: cell-based, Homo sapiens
MCF7 [5] = test: Cytotoxic activity against human MCF7 cells assessed as reduction in cell viability after 24 hrs by MTT assay; conditions: MCF7, 24 h
MCF7 [6] = test: Cytotoxic activity against human MCF7 cells assessed as reduction in cell viability at 200 uM after 24 hrs by MTT assay; assay type: functional, cell-based
HepG2 [7] = test: Cytotoxic activity against human HepG2 cells assessed as reduction in cell viability at 50 to 100 uM after 24 hrs by MTT assay; assay type: functional, cell-based
HepG2 [8] = test: Cytotoxic activity against human HepG2 cells assessed as reduction in cell viability at 6.25 to 25 after 24 hrs by MTT assay; assay type: functional, cell-based
MCF7 [9] = test: Cytotoxic activity against human MCF7 cells assessed as reduction in cell viability at 6.25 to 25 after 24 hrs by MTT assay; assay type: functional, cell-based

SMILES | pIC50 [1] | further results
Nc1nc(CSc2nnn[nH]2)nc(Nc2ccc(F)cc2)n1 | 3.47 | 
Cc1cc(O)nc(NCCCn2ccnc2)n1 | < 3.00 | 
COc1cccc(C(=O)NCc2n[nH]c(=S)n2-c2ccccc2Cl)c1 | < 3.00 | 
O=C(NCc1n[nH]c(=S)n1-c1ccc(F)cc1)c1ccccc1F | < 3.00 | 
C[C@H](Sc1nc(N)cc(O)n1)C(=O)N1CCOCC1 | < 3.00 | 
Nc1nc(N)nc(CSc2nnc(-c3cccnc3)o2)n1 | < 3.00 | 
CCCn1ccnc1SCc1nc(N)nc(Nc2ccc(F)cc2)n1 | < 3.00 | 
Cc1cc(O)nc(N/N=C\c2cccnc2)n1 | < 3.00 | 
Cc1cc(CNc2ncccc2C(N)=O)ccn1 | < 3.00 | 
Nc1nc(SCCc2ccccc2)c2nc[nH]c2n1 | 4.07 | 
Cc1cc(CNc2nc3c(cc2C(N)=O)CCC3)ccn1 | < 3.00 | 
O=C(NCc1n[nH]c(=S)n1-c1ccccc1)c1ccccc1C(F)(F)F | < 3.00 | 
C[C@H](Sc1nc(N)nc(N)n1)C(=O)N1CCOCC1 | < 3.00 | 
COc1cccc(C(=O)NCc2nnc(S)n2-c2ccc(Cl)c(Cl)c2)c1 | < 3.00 | 
Cc1cc(CNc2nc(C)ccc2C(N)=O)ccn1 | < 3.00 | 
Cc1cc(O)nc(N/N=C\c2ccncc2)n1 | < 3.00 | 
COc1ccc(CNc2ncccc2C(N)=O)cc1OC | < 3.00 | 

Now from value to compound, other results behind:

pIC50 [1] | SMILES | further results
< 3.00 | Cn1nnnc1SCc1nc(N)nc(Nc2ccc(F)cc2)n1 | 
3.64 | COc1ccc(Nc2nc(N)nc(CSC(=S)N3CCOCC3)n2)cc1 | inhibition at 200 µM (HepG2 [2]): 90%; cytotoxicity at 24 h, 200 µM [3]: 90%; pEC50 (HepG2 [4]): 4.69; pEC50 (HUVEC; Homo sapiens, HUVEC): 3.91; inhibition (INH) (HUVEC; human, huvec): Dose-dependent effect; pEC50 (MCF7 [5]): 3.89; inhibition (MCF7 [6]): Active; inhibition (HepG2 [7]): Active; inhibition (HepG2 [8]): inactive; inhibition (MCF7 [9]): inactive
< 3.00 | CN(C(=S)SCc1nc(N)nc(Nc2ccc(F)cc2)n1)C1CCCCC1 | 
< 3.00 | CN1CCN(C(=S)SCc2nc(N)nc(Nc3ccc(F)cc3)n2)CC1 | 
3.86 | Nc1nc(CSC(=S)N2CCOCC2)nc(Nc2ccc(F)cc2)n1 | 
< 3.00 | Nc1nc(CSc2nnnn2C2CCCC2)nc(Nc2ccc(F)cc2)n1 | 
< 3.00 | COc1ccc(Nc2nc(N)nc(CSC(=S)N3CCCCC3)n2)cc1 | 
< 3.00 | Nc1nc(CSC2CCCC2)nc(Nc2ccc(F)cc2)n1 | 
< 3.00 | Nc1nc(CSc2nnc(C3CC3)o2)nc(Nc2ccc(F)cc2)n1 | 
